# Data taken from patent publication US20110217301A1, “METHODS FOR TREATING OR SCREENING FOR COMPOUNDS FOR THE TREATMENT OF SEPSIS” (priority 2009, published 2011).
# Where a SMILES comes first, the peptide text is derived from it. Bridges are numbered along the chain shown (N, C = ends). [ ]: non-standard residue; d: D form. hArg = N=C(N)NCCCC[C@H](N)C(=O)O; Mpa = O=C(O)CCS
# Experiments:
# [1] = adults admitted to the ICU already receiving aspirin, clopidogrel or a combination; cited from earlier work
# splenocytes = experiment: Ex vivo septic platelet-splenocyte co-incubation with anti-aggregatory platelet pretreatment; apoptosis by flow cytometry (TUNEL, pan-caspase FLICA); type: cell-based, mouse
# Description: Non-septic wild type spleens were firmly pressed between two glass slides to express splenocytes, which were isolated by centrifugation through Ficoll-Paque™ Plus (GE Healthcare Bio-Sciences Corporation, Piscataway, N.J.). Splenocyte concentrations were measured and standardized using a manual hemocytometer and co-incubated ex vivo with platelets (from septic or healthy control mice) for 90 minutes at 37° C. and 5% CO2 in complete Dulbecco's Modified Eagle Medium (DMEM) (Invitrogen/GIBCO, Carlsbad, Calif.). For some experiments, a 0.4 μm semi-permeable membrane (Corning Inc., Corning, N.Y.) was used to physically separate platelets from splenocytes.
# Splenocyte apoptosis in each experimental condition was quantified in cell suspensions by flow cytometry on a FACSCalibur™ (Becton, Dickinson and Company, San Jose, Calif.) and in tissue sections by immunohistochemistry on a Nikon Eclipse E 800 Microscope (Nikon Instruments Inc., Melville, N.Y.) with a Spot RT Slider Camera (Diagnostic Instruments Inc., Sterling Heights, Mich.).
# Splenocyte suspension apoptosis was identified using FlowTACS™ (Trevigen, Gaithersburg, Md.), a TUNEL-based assay for detection of DNA fragmentation. Positive controls were generated with staurosporine (Sigma Life Sciences, St Louis, Mo.). CD4+ fractions were identified by fluorophore-labeled antibody staining (clone L3T4; eBiosciences, San Diego, Calif.). We used a Sulforhodamine FLICA-Apoptosis Detection Kit Pan-Caspase Assay (Immunochemistry Technologies, Bloomington, Minn.) to measure activated caspases in apoptotic cells. Immunohistochemistry was performed on frozen heart, lung, kidney, spleen, and liver sections (4-7 μm) stained with the TUNEL-based TACK® 2 TdT In Situ Apoptosis Detection Kit (Trevigen, Gaithersburg, Md., USA) according to the manufacturer's instructions.
# other integrins = details: binds specifically to GPIIb/IIIa; cited from earlier work
# CD4+ splenocytes = experiment: Co-incubation of CD4+ splenocytes with platelets with or without recombinant TNFα pre-treatment; apoptosis by TiterTACS; type: cell-based, mouse
# Description: CD4^+ splenocytes from healthy control mice were co-incubated with platelets isolated from control or septic mice for 90 minutes at 37° C. and 5% CO2 with or without platelet pre-treatment with 10 ng/mL of recombinant TNFα (Sigma-Aldrich) for 90 minutes. Splenocyte apoptosis was evaluated by TiterTACS™ (Trevigen, Gaithersburg, Md., USA), a quantitative colorimetric assay for in situ detection of DNA fragmentation. All samples were run in triplicate according to the manufacturer's protocol with data normalized to negative and nuclease-induced positive controls.
# Our finding of granzyme B in platelets from septic mice and humans caused us to hypothesize that platelets could be lymphotoxic in this scenario. To study this question, platelets from mice 18 hours status post CLP were co-incubated with CD4^+ splenocytes isolated from healthy control mice. Platelets from septic wild-type (i.e. C57BL6) mice induced marked splenocyte apoptosis compared to platelets from sham wild-type mice (rate of apoptosis=26.0±3.4 versus 3.9±3.4%; p=0.007). (FIG. 4) This co-incubation experiment was repeated with platelets from septic granzyme B null (−/−) mice (i.e. B6.129S2-Gzmb^tmlLey). In this case, there was a complete lack of induced splenocyte apoptosis by septic platelets. […] (FIG. 4)
# granzyme B = experiment: Flow cytometry of intracellular granzyme B in CD61+ platelets; type: cell-based, mouse; details: additional platelet activation with TNFα; data not shown
# From the text: To determine if granzyme B mRNA up-regulation translates to increased granzyme B protein expression, additional citrated whole blood was collected from septic and control mice. It was fixed with 1% paraformaldehyde, permeabilized, and intracellularly stained with anti-granzyme B (clone 16G6; eBioscience, San Diego, Calif., USA) using appropriate isotype and negative (unlabeled) controls. Flow cytometry data were generated on a FACSCalibur™ System (BD Biosciences, San Jose, Calif., USA), gating on CD61^+ (clone 2C9.G2; BD) platelets, and analyzed using FlowJo 7.2 (Tree Star, Inc., Ashland, Oreg., USA).
# [2] = molecular target: plasma membrane glycoprotein GPIIb/IIIa (mouse) (UniProt Q9QUM0); experiment: cell-based or functional assay
# [3] = eptifibatide-exposed (4 μg/mL, 15 minutes) septic wild type platelets with healthy splenocytes vs non-exposed septic platelets, mean±SEM
# [4] = platelets pre-treated, compared with untreated septic platelets
# Chain of UniProt Q9QUM0 (Q9QUM0 32-1033, chain 1 of 2): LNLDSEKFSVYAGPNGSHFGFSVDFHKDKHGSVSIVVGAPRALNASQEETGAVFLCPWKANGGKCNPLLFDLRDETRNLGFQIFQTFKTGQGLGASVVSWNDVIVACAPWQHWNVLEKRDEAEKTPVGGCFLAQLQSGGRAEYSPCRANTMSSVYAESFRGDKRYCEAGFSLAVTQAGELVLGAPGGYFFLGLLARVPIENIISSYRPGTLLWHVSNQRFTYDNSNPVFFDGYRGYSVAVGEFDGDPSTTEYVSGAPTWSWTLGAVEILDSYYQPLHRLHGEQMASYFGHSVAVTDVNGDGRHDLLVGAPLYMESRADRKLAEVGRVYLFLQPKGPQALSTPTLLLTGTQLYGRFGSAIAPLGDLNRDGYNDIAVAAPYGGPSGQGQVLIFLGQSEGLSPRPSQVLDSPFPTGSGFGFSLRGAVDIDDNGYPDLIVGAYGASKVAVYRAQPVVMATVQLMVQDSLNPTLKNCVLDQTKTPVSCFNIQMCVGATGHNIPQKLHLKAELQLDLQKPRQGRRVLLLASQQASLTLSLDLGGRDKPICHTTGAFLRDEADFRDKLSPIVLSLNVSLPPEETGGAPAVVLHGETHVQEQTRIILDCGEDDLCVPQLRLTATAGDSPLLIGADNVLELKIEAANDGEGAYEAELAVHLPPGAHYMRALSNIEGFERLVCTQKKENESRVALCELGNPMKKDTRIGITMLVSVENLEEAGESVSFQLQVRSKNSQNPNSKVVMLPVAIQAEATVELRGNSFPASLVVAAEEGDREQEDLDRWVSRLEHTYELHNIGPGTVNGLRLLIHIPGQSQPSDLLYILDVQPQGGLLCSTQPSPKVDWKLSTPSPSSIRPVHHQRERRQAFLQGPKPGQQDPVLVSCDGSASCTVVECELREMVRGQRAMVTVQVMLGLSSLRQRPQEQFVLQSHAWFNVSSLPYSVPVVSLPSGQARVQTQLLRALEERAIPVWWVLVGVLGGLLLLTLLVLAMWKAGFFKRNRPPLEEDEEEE
# Chain of UniProt Q9QUM0 (O54890 26-787, chain 2 of 2, further chain): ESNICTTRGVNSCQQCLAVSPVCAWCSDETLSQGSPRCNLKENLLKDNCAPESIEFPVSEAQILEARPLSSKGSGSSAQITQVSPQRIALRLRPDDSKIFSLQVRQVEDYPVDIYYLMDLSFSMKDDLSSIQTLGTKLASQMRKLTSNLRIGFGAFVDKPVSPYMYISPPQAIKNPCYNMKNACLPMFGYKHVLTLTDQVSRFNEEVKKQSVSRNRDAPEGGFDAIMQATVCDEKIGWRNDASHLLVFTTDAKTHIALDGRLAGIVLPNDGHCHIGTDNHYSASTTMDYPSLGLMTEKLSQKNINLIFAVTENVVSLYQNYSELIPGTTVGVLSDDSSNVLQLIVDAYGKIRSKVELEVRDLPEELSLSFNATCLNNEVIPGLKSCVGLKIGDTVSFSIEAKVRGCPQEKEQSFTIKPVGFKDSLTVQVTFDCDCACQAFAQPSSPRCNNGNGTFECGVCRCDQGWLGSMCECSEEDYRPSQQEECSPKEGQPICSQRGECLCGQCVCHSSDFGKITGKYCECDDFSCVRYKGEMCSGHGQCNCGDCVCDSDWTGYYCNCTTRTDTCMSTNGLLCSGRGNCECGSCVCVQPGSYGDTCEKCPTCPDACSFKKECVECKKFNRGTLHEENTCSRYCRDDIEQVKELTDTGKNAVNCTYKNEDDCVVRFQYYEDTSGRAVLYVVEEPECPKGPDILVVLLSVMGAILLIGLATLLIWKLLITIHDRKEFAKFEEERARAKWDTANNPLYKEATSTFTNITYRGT
compound,measurement,setting,value
CC(=O)Oc1ccccc1C(=O)O [aspirin],levels of MODS,[1],decreased levels of MODS
same,mortality,[1],decreased mortality
COC(=O)[C@H](c1ccccc1Cl)N1CCc2sccc2C1 [clopidogrel],levels of MODS,[1],decreased levels of MODS
same,mortality,[1],decreased mortality
N=C(N)NCCCC[C@@H]1NC(=O)CCSSC[C@@H](C(N)=O)NC(=O)[C@@H]2CCCN2C(=O)[C@H](Cc2c[nH]c3ccccc23)NC(=O)[C@H](CC(=O)O)NC(=O)CNC1=O [eptifibatide] ([Mpa][hArg]GDWPC-NH2; disulfide 1-7),reduction of splenocyte apoptosis in the CD4+ fraction,splenocytes; [3],85±20.7 % reduction
same,reduction of splenocyte apoptosis overall,splenocytes; [3],66.5±10.6 % reduction
same,"septic platelet-induced CD4+ splenocyte apoptosis (TUNEL+ and pan-Caspase+), result in words",splenocytes; [4],significant reduction
same,"septic platelet-induced splenocyte apoptosis overall (TUNEL+ and pan-Caspase+), result in words",splenocytes; [4],significant reduction
same,affinity for other integrins,other integrins,low affinity
TNFα,"lymphotoxic capacity of platelets, result in words",CD4+ splenocytes; further platelet activation with recombinant TNFα,did not alter
same,rate of apoptosis (lymphotoxicity) of CD4+ splenocytes,"CD4+ splenocytes; wild-type platelets further activated by TNFα (10 ng/mL, 90 minutes), p=0.88 vs non-activated control platelets",4.5±1.3%
same,"intracellular granzyme B in platelets, result in words",granzyme B,did not alter
eptifibatide (peptide),"reduction of septic platelet-induced apoptosis in the CD4+ splenocyte fraction, TUNEL+ and pan-caspase+ by flow cytometry",[2],85 % reduction
same,"reduction of septic platelet-induced splenocyte apoptosis (overall), TUNEL+ and pan-caspase+ by flow cytometry",[2],66.5 % reduction
